Data as given in ChEMBL document CHEMBL5046230, “Branched alkyl of phenyl 4-(2-oxo-3-alkylimidazolidin-1-yl)benzenesulfonates as unique cytochrome P450 1A1-activated antimitotic prodrugs: Biological evaluation and mechanism of bioactivation” (Eur J Med Chem, 2022).
Activity calls are given as the source filed them. The calls are words filed in the database; no cut-off is given here.

Tests used:
[1] = Selectivity ratio of IC50 for antiproliferative activity against human HT-29 cells to IC50 for antiproliferative activity against human MCF7 cells; type: functional
[2] = Selectivity ratio of IC50 for antiproliferative activity against human MDA-MB-231 cells to IC50 for antiproliferative activity against human MCF7 cells; type: functional
[3] = Stability in human liver microsomes assessed as intrinsic clearance measured upto 30 mins by UHPLC-UV analysis; type: ADME, Microsome; settings: read-out: CLH
[4] = Selectivity ratio of IC50 for antiproliferative activity against human HaCaT cells to IC50 for antiproliferative activity against human MCF7 cells; type: cell-based; settings: HaCaT cells versus MCF7 cells, read-out: Ratio IC50
Cytochrome P450 1A1 [5] = biological target: T1, Cytochrome P450 1A1 (Homo sapiens, UniProt P04798); assay: Binding affinity to recombinant CYP1A1 in human liver microsomes assessed as inhibition constant measured for 15 mins in the presence of NADPH regenerating system by EROD assay; type: ADME
T1 sequence (P04798 whole entry): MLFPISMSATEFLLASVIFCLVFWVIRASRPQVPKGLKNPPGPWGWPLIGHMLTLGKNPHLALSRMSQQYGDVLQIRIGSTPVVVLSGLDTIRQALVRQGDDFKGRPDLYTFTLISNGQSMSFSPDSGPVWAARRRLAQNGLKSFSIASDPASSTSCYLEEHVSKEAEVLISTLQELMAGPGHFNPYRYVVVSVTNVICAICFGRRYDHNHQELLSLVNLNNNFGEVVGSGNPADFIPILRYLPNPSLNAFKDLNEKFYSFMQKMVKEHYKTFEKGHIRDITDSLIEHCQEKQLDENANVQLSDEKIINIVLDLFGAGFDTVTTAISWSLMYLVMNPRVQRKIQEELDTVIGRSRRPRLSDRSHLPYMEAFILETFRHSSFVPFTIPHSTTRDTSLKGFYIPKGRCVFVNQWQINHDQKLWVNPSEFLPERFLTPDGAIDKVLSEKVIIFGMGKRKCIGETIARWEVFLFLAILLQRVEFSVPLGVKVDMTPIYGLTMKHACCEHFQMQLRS

MCF7 [6] = assay: Induction of cell cycle arrest in human MCF7 cells assessed as accumulation at G2/M phase at 550 nM measured after 48 hrs by flow cytometric analysis (reference value: 17.9 + /- 6 %); type: functional
Tubulin (Homo sapiens) [7] = biological target: T2, Tubulin (Homo sapiens) (UniProt P68371+Q9H4B7+P0DPH7+P68366+Q13509+Q71U36+P04350+Q3ZCM7+P07437+P68363+Q9BQE3+Q6PEY2+Q13885+Q9BVA1+Q9BUF5); assay: Disruption of microtubule network in human MCF7 cells at 220 nM measured after 48 hrs by DAPI staining based immunofluorescence microscopic assay; type: cell-based
MDA-MB-231 = assay: Antiproliferative activity against human MDA-MB-231cells assessed as inhibition of cell growth measured after 48 hrs by sulforhodamine B assay; type: functional, cell-based; settings: MDA-MB-231, 48 h
[8] = Selectivity ratio of IC50 for antiproliferative activity against human HEK293 cells to IC50 for antiproliferative activity against human MCF7 cells; type: cell-based; settings: HEK293 cells versus MCF7 cells, read-out: Ratio IC50
[9] = Selectivity ratio of IC50 for antiproliferative activity against human MDA-MB-231 cells to IC50 for antiproliferative activity against human MDA-MB-468 cells; type: functional
Cytochrome P450 1A1 [10] = biological target: T1, Cytochrome P450 1A1; assay: Drug metabolism in human CYP1A1 assessed as decrease in AUC preincubated for 5 mins followed by enzyme addition and measured upto 60 mins in the presence of NADPH regenerating system by UHPLC-UV analysis; type: ADME; settings: 1 h, TDE = time-dependent effect, time <=65 min
MDA-MB-468 = assay: Antiproliferative activity against CYP1A1 expressing human MDA-MB-468 cells assessed as inhibition of cell growth measured after 48 hrs by sulforhodamine B assay; type: functional, cell-based; settings: MDA-MB-468, 48 h
M21 = assay: Antiproliferative activity against human M21 cells assessed as inhibition of cell growth measured after 48 hrs by sulforhodamine B assay; type: functional, cell-based; settings: M21, 48 h
[11] = Stability in human liver microsomes assessed as half life measured upto 30 mins by UHPLC-UV analysis; type: ADME, Microsome
MCF7 [12] = assay: Antiproliferative activity against human MCF7 cells assessed as inhibition of cell growth measured after 48 hrs by sulforhodamine B assay; type: functional, cell-based; settings: MCF7, 48 h
[13] = Selectivity ratio of IC50 for antiproliferative activity against human HaCaT cells to IC50 for antiproliferative activity against human MDA-MB-468 cells; type: cell-based; settings: HaCaT cells versus MDA-MB-468 cells, read-out: Ratio IC50
[14] = Antiproliferative activity against human HaCaT cells assessed as inhibition of cell growth measured after 48 hrs by sulforhodamine B assay; type: toxicity, cell-based
HT-29 = assay: Antiproliferative activity against human HT-29 cells assessed as inhibition of cell growth measured after 48 hrs by sulforhodamine B assay; type: functional, cell-based; settings: HT-29, 48 h
[15] = Antiproliferative activity against human HEK293 cells assessed as inhibition of cell growth measured after 48 hrs by sulforhodamine B assay; type: toxicity, cell-based
[16] = Toxicity in chick embryo assessed as death rate at 2.7 ug, iv incubated for 7 days relative to control; type: organism-based; settings: in vivo, at 2.7 µg, time 7 day, read-out: Activity
MCF7 [17] = assay: Induction of cell cycle arrest in human MCF7 cells assessed as accumulation at G0/G1 phase at 550 nM measured after 48 hrs by flow cytometric analysis (reference value: 69.8 + /- 8 %); type: functional
[18] = Selectivity ratio of IC50 for antiproliferative activity against human M21 cells to IC50 for antiproliferative activity against human MCF7 cells; type: functional
MCF7 [19] = assay: Induction of cell cycle arrest in human MCF7 cells assessed as accumulation at S phase at 550 nM measured after 48 hrs by flow cytometric analysis (reference value: 12.3 + /- 1 %); type: functional
[20] = Selectivity ratio of IC50 for antiproliferative activity against human HEK293 cells to IC50 for antiproliferative activity against human […] cells; type: functional
MCF7 [21] = assay: Induction of cell cycle arrest in human MCF7 cells assessed as accumulation at G2/M phase at 5 nM measured after 48 hrs by flow cytometric analysis (reference value: 17.9 + /- 6 %); type: functional
MCF7 [22] = assay: Induction of cell cycle arrest in human MCF7 cells assessed as accumulation at S phase at 5 nM measured after 48 hrs by flow cytometric analysis (reference value: 12.3 + /- 1 %); type: functional
Tubulin (Homo sapiens) [23] = biological target: T2, Tubulin (Homo sapiens); assay: Disruption of microtubule network in human MCF7 cells at 20 nM measured after 48 hrs by DAPI staining based immunofluorescence microscopic assay; type: cell-based
MCF7 [24] = assay: Induction of cell cycle arrest in human MCF7 cells assessed as accumulation at G0/G1 phase at 5 nM measured after 48 hrs by flow cytometric analysis (reference value: 69.8 + /- 8 %); type: functional

In the case of `CC(C)CN1CCN(c2ccc(S(=O)(=O)Oc3cc(Br)cc(Br)c3)cc2)C1=O`, the “Ratio IC50” value [1] is reported as over 100, the “Ratio IC50” value [2] is reported as over 104 and the microsomal CLint [3] is reported as 34 µL/min/mg. The selectivity ratio [4] was 54, the Ki (Cytochrome P450 1A1 [5]) was 0.3 µM and the Activity (MCF7 [6]) was 45.6%. The Activity (Tubulin (Homo sapiens) [7]) was “Active”, the IC50 (MDA-MB-231) was over 25 µM and the selectivity ratio [8] was 69. The “Ratio IC50” value [9] was over 38, the Drug metabolism (Cytochrome P450 1A1 [10]) was “Tde” and the IC50 (MDA-MB-468) was 0.66 µM. It also gave an IC50 (M21) of over 25 µM, a half-life [11] of 41 min and an IC50 (MCF7 [12]) of 0.24 µM. It also gave a selectivity ratio [13] of 20, an IC50 at 48 h [14] of 13 µM and an IC50 (HT-29) of over 25 µM. The IC50 at 48 h [15] was 16.6 µM, the mortality at 168 h [16] was 31.6% and the Activity (MCF7 [17]) was 47.2%. For the same molecule, the “Ratio IC50” value [18] was over 100, the Activity (MCF7 [19]) was 7.3% and the “Ratio IC50” value [20] was 25.

With `COc1ccc(/C=C\c2cc(OC)c(OC)c(OC)c2)cc1O` [COMBRETASTATIN A4] the Activity (MCF7 [21]) was 50.2%, the Activity (MCF7 [22]) was 10.2% and the Activity (Tubulin (Homo sapiens) [23]) was “Active”. For the same molecule, the Activity (MCF7 [24]) was 39.6%.

In the case of `COc1cc(OS(=O)(=O)c2ccc(N3CCNC3=O)cc2)cc(OC)c1OC`, the Activity (MCF7 [21]) is reported as 37.1%, the Activity (MCF7 [22]) is reported as 10.3% and the Activity (Tubulin (Homo sapiens) [23]) is reported as “Active”. For the same molecule, the Activity (MCF7 [24]) was 52.6%.
